# Where two headings read alike, the source gives them in different places.
# How the values were obtained:
# [1] = MALDI imaging mass spectrometry of dermal tissues adjacent to the implant; format: in vivo, C57BL/6 J mice; details: for Detection by MALDI-IMS in dermal tissue samples during implant TAF delivery: all medicated specimens; for Spatial distribution in dermal tissue sections (MALDI-IMS): high-releasing (0.58 mg d^-1) implants, D3–D28; for MALDI-IMS signal and localization with implant in situ: low-releasing (0.23 mg d^-1) implants, Day 14, 100 µm resolution
# Protocol: The used implants, the surrounding capsule, and the encasing dermal tissue were removed as a block in accordance with ISO 10993-6 guidelines, processed and stored, as described elsewhere. Briefly, the capsule was cut longitudinally and rolled open, taking care not to disrupt the architecture of the tissue or to damage the used implant. A portion of the tissue specimen was placed into 4% paraformaldehyde solution (phosphate-buffered at pH 7.2), and stored at 4 °C, for histopathology and two other portions were flash-frozen in liquid nitrogen for drug concentration analysis as well as for drug spatial distribution analysis by MALDI-IMS (vide infra).
# Frozen mouse tissue specimens were shipped to Vanderbilt University on dry ice and stored at − 80 °C prior to use. Tissues were removed from the − 80 °C freezer and placed in a − 20 °C cryostat (CM 1900, Leica Biosystems, Buffalo Grove, IL) and sectioned. Tissue samples that had been prepared via removal of the used implant were affixed to the cryostat chuck with optimal cutting temperature (OCT) polymer and were cut on the cryostat into 12 µm thick sections for imaging mass spectrometry and H&E staining.
# Tissue samples that still contained the implant in place were embedded in OCT prior to sectioning. In order to minimize the artifactual signal from the TAF powder after sectioning (the act of the cryostat blade cutting through an intact implant distributed residual TAF powder that still remained in the used implant onto the surrounding tissue section), house vacuum was used to remove visible TAF powder, followed by lightly running nitrogen gas over the plate to remove any additional loose powder from the slide.
# The tissue sections were thaw-mounted onto indium-tin oxide coated glass slides for imaging (Delta Technologies, Ltd, Loveland, CO). The tissue sections were left to dry for at least 15 min in a desktop vacuum desiccator prior to matrix application. […] For 9AA, four passes were applied at 85 °C in a crisscross pattern, with a 700 mm min^-1 stage velocity, 2 mm track spacing, and 0.15 mL min^-1 flow rate. For DHB the same method was used, except eight passes were applied and the stage velocity was 1300 mm min^-1.
# Flash-frozen dermal tissue samples collected adjacent to the TAF implants and sectioned were analyzed with a linear ion trap mass spectrometer equipped with a MALDI source and a nitrogen laser (LTQ XL, Thermo Scientific, Waltham, MA). The structures of compounds of interest are shown in Scheme 1. Targeted MS/MS methods were optimized for each compound using authentic samples as standards, with the final parameters shown in Appendix A under Supplementary Information. Pseudo-selected reaction monitoring mode was used for imaging by isolating precursor ions with a 1 Da window, fragmenting them, and acquiring full product ion mass spectra at each pixel. TFV, TFV-MP, and TFV-DP were analyzed in negative ion mode, while TAF, Metabolite X, and Metabolite Y were analyzed in positive ion mode. In most cases, after imaging, the matrix was removed and the tissue section that had been imaged was H&E stained for better image registration with tissue morphology. Standard images were acquired at either 50 or 100 µm spatial resolution. Reconstructed ion images were generated in ImageQuest software (Thermo Scientific, Waltham, MA) by plotting the intensity of the diagnostic fragment ion or ions as a function of location across the tissue surface.
# [2] = Simulation of plasma TFV and PBMC TFV-DP following TAF delivery from implants; parameters: species or system C57BL/6 J mice; details: dose-dependent
# Protocol: All other parameters were unmodified from Table 2. Our starting hypothesis was that the difference between SQ injection and long-acting SQ delivery via implant would be strictly related to the implant release rate. Once the drug was released from the device, it was hypothesized to be transferred from the SQ pocket to body circulation via the same mechanism and governed by the same parameters as by SQ injection, and therefore the same model was employed.
# Compartmental analyses were performed in Phoenix software (version 8.3, Certara, Princeton, NJ) using a published, simple, structural PK model describing the TFV kinetics. IV and SQ data were modeled simultaneously. Due to the destructive nature of the blood sampling, data were modeled using a naïve-pooled algorithm, without inter-animal variability. The resulting systemic parameters, along with the implant in vivo release rates on a per animal basis, were used to co-model (predict) concentration data in mice following during implant dosing.
# [3] = format: in vivo, C57BL/6 J mice; details: Day 28, pathologist evaluation, low and high doses
# Protocol: Toxicity was evaluated by clinical observations, cage-side observations (twice daily), and body weight (weekly). Formaldehyde-fixed dermal tissue specimens (one per animal) were paraffin-embedded, sectioned, and H&E stained using established methods (JIT Labs, jit-labs.com). The slides were evaluated for microscopic findings by a certified pathologist (Vet Path Services, Inc., Mason, OH). Histopathology grades were assigned as grade 1 (minimal), grade 2 (mild), grade 3 (moderate), grade 4 (marked), or grade 5 (severe) based on an increasing extent of overall change.
# [4] = tested on: HIV-1
# Protocol: The BLT hu-mouse model has been used extensively in efficacy studies involving HIV-1 prevention research[54]–[58]. […] The mice were challenged with HIV-1 either rectally or vaginally 6 h post dosing and monitored for infection status for 12 weeks.
# The generation of BLT hu-mice was performed as described in Baum et al.[58], and the references contained therein.
# Vaginal or rectal challenge with HIV-1 was performed 6 h after dosing and HIV-1 infection status was monitored by quantifying viral RNA concentration in peripheral blood (plasma) at 1, 2, 3, 6, and 12 weeks post challenge as fully described in Baum et al.[58], and the references contained therein.
# [5] = rapidly converts to TFV; cited from earlier work
# [6] = tested on: OAT1; details: in vitro studies; cited from earlier work
# [7] = tested on: OAT3; details: in vitro studies; cited from earlier work
# [8] = cited from earlier work
# [9] = rat, in vivo; cited from earlier work
# [10] = Intravenous TAF pharmacokinetic mouse study (plasma, PBMC, tissue homogenate); format: in vivo, C57BL/6 J mice; details: for half-life: C57BL/6 J, mouse, iv, 0.5 mg
# Protocol: C57BL/6 J Mice (9 groups of 4 animals each; 36 mice total) were administered the study product (0.5 mg dose, 0.1 mL) by intravenous (IV) injection. Animals (N = 4) were sacrificed at the following timepoints: Day 1 (1, 3, 6, 12, 24 h), Day 2, 4, 8, and 14. Blood was collected by exsanguination along with select tissue specimens (vide infra).
# The isolation of plasma and PBMCs from blood samples was carried out in a laminar flow hood using aseptic techniques, and the entire process was completed in under 45 min to minimize analyte metabolism. Blood was transferred into collection tubes containing sodium citrate (final concentration, 0.4% w/v), diluted using one volume equivalent of 1 × PBS solution, and mixed by inversion. The minimum final volume was 4.0 mL. Prior to the addition of blood samples, Ficoll-Paque media (MilliporeSigma, Burlington, MA, 3.2 mL) was transferred into a 12 mL LeucoSep tube (Greiner, Monroe, NC) and centrifuged at 1000 g for 20 s at room temperature, causing the media to settle just below the porous barrier. The homogenous, diluted blood-PBS mixture was transferred into the prepared LeucoSep tube and centrifuged at 1000 g for 10 min at room temperature, resulting in the formation of three layers above the porous barrier: (A) top layer, consisting of the plasma fraction; (B) middle, interface layer, containing the PBMCs; and (C) thin lower layer, just above the barrier, consisting of Ficoll-Paque media. Layer A (plasma) was transferred to empty 1.5 mL microfuge tubes in 0.5 mL aliquots, and flash-frozen in liquid nitrogen. Layer B (PBMCs) was transferred into an empty 15 mL centrifuge tube and PBS added to the 12 mL mark, followed by gentle inversion mixing. The suspension was centrifuged at 400 g for 15 min, the supernatant removed, and the pellet resuspended in PBS (10 mL) by gentle pipetting. An aliquot (10 µL) was removed from the suspension for cell counting and the remaining sample was centrifuged at 400 g for 15 min. The supernatant was removed without disturbing the cell pellet, which was treated with ice-cold 70% v/v methanol in molecular-grade water (1.0 mL). The mixture was mixed lightly by vortex agitation to lyse the cells, followed by transfer to a 2.0 mL cryovial that was flash-frozen in liquid nitrogen.
# Vaginal, rectal, spleen, and thymus tissue samples were collected from sacrificed animals at Day 1 (12, 24 h), Day 4, and 8; rectal tissue samples were not collected at 12 h. The samples were transferred into pre-weighed sample tubes, weighed, and flash-frozen in liquid nitrogen.
# (§1) PBMC results were normalized to the number of cells and reported as fmol/10^6 cells or as intracellular concentration based on cell volume, in nM. Tissue results were normalized to sample mass and reported as ng mg^-1 or fmol mg^-1.
# [11] = Subcutaneous TAF injection pharmacokinetic mouse study; format: in vivo, C57BL/6 J mice; details: C57BL/6 J, PBMCs, 0.5 mg, read-out: PBMC TFV-DP t1/2 (converted)
# Protocol: C57BL/6 J Mice (12 groups of 4 animals each; 48 mice total) were administered the study product (0.5 mg dose, 0.1 mL) described above by subcutaneous (SQ) injection. Animals (N = 4) were sacrificed at the following timepoints: Day 1 (1, 3, 6, 12, 24 h), Day 2, 4, 6, 8, 10, 12, and 14. Blood was collected by exsanguination and processed as described above.
# as §1
# [12] = Subdermal TAF implant pharmacokinetic mouse study; format: in vivo; details: low- and high-releasing implants
# Text: Two study groups are described here: one low-releasing and one high-releasing implant group. Animals (N = 3 per implant group) were sacrificed at the following timepoints: Day 3, 7, 14, 21, and 28 (15 mice total per implant group).
# [13] = parameters: method as in PMID 23600365; details: healthy individuals; cited from earlier work
# [14] = tested on: HIV-1; details: cited from earlier work
# [15] = oral TAF 6 h before rectal HIV-1 challenge
# [16] = oral TAF 6 h before vaginal HIV-1 challenge
smiles,measurement,setting,value
C[C@H](Cn1cnc2c(N)ncnc21)OC[P@@](=O)(O)N[C@@H](C)C(=O)O [Metabolite X],Detection by MALDI-IMS in dermal tissue samples during implant TAF delivery,[1],detected
same,Spatial distribution in dermal tissue sections (MALDI-IMS),[1],localized close to the implant
same,MALDI-IMS signal and localization with implant in situ,[1],localized close to the implant
C[C@H](Cn1cnc2c(N)ncnc21)OCP(=O)(O)OP(=O)(O)O [TFV-MP],Detection by MALDI-IMS in dermal tissue samples during implant TAF delivery,[1],detected
same,Spatial distribution in dermal tissue sections (MALDI-IMS),[1],distributed homogeneously throughout the samples
same,MALDI-IMS signal and localization with implant in situ,[1],weak
CC(C)OC(=O)[C@H](C)N[P@](=O)(O)CO[C@H](C)Cn1cnc2c(N)ncnc21 [Metabolite Y],Detection by MALDI-IMS in dermal tissue samples during implant TAF delivery,[1],detected
same,Spatial distribution in dermal tissue sections (MALDI-IMS),[1],localized close to the implant
same,MALDI-IMS signal and localization with implant in situ,[1],localized close to the implant
"CC(C)OC(=O)[C@H](C)N[P@](=O)(CO[C@H](C)Cn1cnc2c(N)ncnc21)Oc1ccccc1 [TAF, tenofovir alafenamide]",Exposure scaling (apparent bioavailability) from subdermal implants vs SQ or IV injection,[2],4–5 ×
same,Detection by MALDI-IMS in dermal tissue samples during implant TAF delivery,[1],detected
same,Spatial distribution in dermal tissue sections (MALDI-IMS),[1],localized close to the implant
same,MALDI-IMS signal and localization with implant in situ,[1],most abundant signals
same,Effect of TAF dose on microscopic appearance of tissues,[3],no effects
same,Protection from rectal HIV-1 acquisition,[4]; oral TAF,fully protective
same,Protection from vaginal HIV-1 acquisition,[4]; oral TAF,fully protective
same,ED50,[4]; [15],1.27 µmol
same,ED90,[4]; [15],1.62 µmol
same,ED50,[4]; [16],1.17 µmol
same,ED90,[4]; [16],2.15 µmol
same,m-value ± SEM (median-effect model),[4]; rectal,9.18 ± 1.94
same,m-value ± SEM (median-effect model),[4]; vaginal,3.60 ± 0.22
same,Impurities formed during in vivo implant use,HPLC of retrieved implants,less than 1%
same,TAF peak area of total peak area (TAF and decomposition products) in retrieved implants,"HPLC, irrespective of the implant group",> 98%
same,Stability in mouse plasma,[5],highly unstable
same,Substrate for renal uptake transporter OAT1,[6],not believed to be a substrate
same,Substrate for renal uptake transporter OAT3,[7],not believed to be a substrate
same,Efflux transport in the intestine,[8],vulnerable to efflux transport
O=C(O)C[C@@H]1Cc2ccc(OCCCNc3ccccn3)cc2Cc2ccccc21 [SB-265123],Apparent oral F,[9],exceeding 100%
"C[C@H](Cn1cnc2c(N)ncnc21)OCP(=O)(O)OP(=O)(O)OP(=O)(O)O [TFV-DP, TFV diphosphate]",half-life,"[10]; PBMCs, read-out: PBMC TFV-DP t1/2 (converted)",41 h
same,"Share of total TFV present as TFV-DP, vaginal tissue",[10]; IV TAF dosing,5.1%
same,"Median vaginal x(TFV-DP) lower than rectal, spleen, thymus","[10]; IV TAF, depending on the compartment",4.7–6.7 fold
same,half-life,"[10]; female, rectal tissue, read-out: Terminal half-life in rectal tissue (NCA) (converted)",26.4 h
same,half-life,"[10]; female, spleen, read-out: Terminal half-life in spleen (NCA) (converted)",23.3 h
same,half-life,"[10]; female, thymus, read-out: Terminal half-life in thymus (NCA) (converted)",23.3 h
same,half-life,"[10]; female, vaginal tissue, read-out: Terminal half-life in vaginal tissue (NCA) (converted)",31.2 h
same,Duration of TFV-DP concentrations in tissues,[10]; single bolus IV TAF administration,> 8 days
same,"TFV-DP mole fraction x(TFV-DP), vaginal tissue, median (IQR)","[10]; tissue homogenate, IV TAF dosing",0.051 (0.022–0.080)
same,half-life,[11],17 h
same,"Share of total TFV species present as TFV-DP, dermal tissue adjacent to TAF implants",[12],less than 1%
same,Detection by MALDI-IMS in dermal tissue samples during implant TAF delivery,[1],detected
same,Spatial distribution in dermal tissue sections (MALDI-IMS),[1],distributed homogeneously throughout the samples
same,MALDI-IMS signal and localization with implant in situ,[1],weak
same,Intracellular (PBMC) TFV-DP half-life,[13],48 h
same,TFV-DP EC90 (more conservative),[14]; corrected for TFV-DP loss on cryopreservation,24 to 48 fmol/10^6 cells
same,PBMC TFV-DP concentration associated with 90% protection,"[14]; post hoc analysis of iPrEX, cryopreserved PBMCs",16 fmol/10^6 cells
